{"source": "paper PMC8909834", "about": "“An Orally Bioavailable and Highly Efficacious Inhibitor of CDK9/FLT3 for the Treatment of Acute Myeloid Leukemia” (Cancers, 2022)", "key": {"MOLM-13 cells": {"tested_on": "MOLM-13 cells", "experiment": "Detection of apoptosis (annexin V/PI assay)", "assay_type": "cell-based", "conditions": "MOLM-13, 1 µM", "method": "(§1) Detection of apoptosis and cell cycle analysis. Detection of apoptosis and cell cycle analysis were performed as described previously. Cells (1 × 10^5 cells/mL) were seeded into a six-well plate (Corning) and incubated overnight at 37 °C, 5% CO2 prior to incubation with different concentrations of CDDD11-8 or control (0.1% final DMSO concentration) for 6, 24, or 72 h. For washout experiments, cells were incubated with compounds for 6 h, then washed three times with 1 × PBS interspersed with centrifugation at 300× g for 5 min to remove compound. After incubation at 37 °C under 5% CO2, cells were centrifuged at 300× g for 5 min to form a pellet, washed with PBS, and incubated with Annexin V/PI (Becton Dickenson, Franklin Lakes, NJ, USA) for 15 min in the dark. For cell cycle analysis, cells were fixed with 70% ethanol (v/v, 4 °C) and incubated in the dark with cell cycle staining solution (50 µg/mL PI, 0.1 mg/mL RNase A, 0.05% Triton X-100) for 1.5 h. Samples were analyzed using a CytoFlex flow cytometer (Beckman Coulter, Brea, CA, USA). Data were analyzed with CytExpert software version 2.1 (Beckman Coulter, Brea, CA, USA)."}, "THP-1 cells": {"tested_on": "THP-1 cells", "experiment": "Detection of apoptosis (annexin V/PI assay)", "assay_type": "cell-based", "conditions": "apoptosis seen at 1.5 µM and 24 and 72 h", "method": "as §1"}, "MV4-11 cells": {"tested_on": "MV4-11 cells", "experiment": "Detection of apoptosis (annexin V/PI assay)", "assay_type": "cell-based", "conditions": "MV4-11, 1 µM", "method": "as §1"}, "Pharmacokinetics in mice": {"experiment": "Pharmacokinetics in mice", "assay_type": "in vivo, BALB/c hairy mice", "method": "Pharmacokinetics. The pharmacokinetics of CDDD11-8 was determined in mice after single oral (PO) and intravenous (IV) doses. CDDD11-8 was administered at a dose of 10 or 100 mg/kg PO or 2 mg/kg IV to BALB/c hairy mice (n = 10 per route of administration; both male and female). The IV dose consisted of CDDD11-8 dissolved in 10/90 N-methyl-2-pyrrolidone (NMP)/acetate buffer (pH 4.5), while the PO doses of CDDD11-8 were dissolved in acetate buffer at pH 4.74. At nominal times, up to three blood samples were collected from individual mice at non-consecutive times from the right cheek, left cheek, and heart of an individual mouse. The concentrations in these samples were measured by validated LC-MS/MS methods (limit of quantification = 5 ng/mL). Pharmacokinetic parameters were estimated after fitting compartmental models to the concentration–time data (Phoenix, Certara, NJ, USA). Specifically, a one-compartmental kinetic model with first-order input was used after an oral dose, and a two-compartmental model was fitted to the IV data. Acceptability of models was evaluated from values for Akaike Information Criterion (AIC), Schwarz’s Bayesian Criterion (SIB), and % Coefficient of Variance (CV) for parameters, where lower values were indicative of a better fit. Other considerations were variances in the concentrations of quality control samples and visual inspection of model fit. Oral bioavailability (F) was calculated from values of AUC after PO and IV administration after correcting for the differences in doses."}}}
{"smiles": "Cc1cnc(N[C@H]2CC[C@H](N)CC2)nc1-c1cnc2ccc(-c3ccccc3)cn12", "note": "[CDDD11-8]", "values": [{"measurement": "apoptotic (Annexin V-positive) cells", "setting": "MOLM-13 cells; 6 h", "result": 86, "unit": "%"}, {"measurement": "apoptotic cells after washout", "setting": "MOLM-13 cells; 6 h then 24 h without compound", "result": 61, "unit": "%"}, {"measurement": "induction of apoptosis", "setting": "THP-1 cells", "result": "less impact"}, {"measurement": "apoptotic (Annexin V-positive) cells", "setting": "MV4-11 cells; 6 h", "result": 51, "unit": "%"}, {"measurement": "apoptotic cells after washout", "setting": "MV4-11 cells; 6 h then 24 h without compound", "result": 28, "unit": "%"}, {"measurement": "oral bioavailability predicted from hepatic extraction", "setting": "Pharmacokinetics in mice", "result": "about 43%"}, {"measurement": "plasma exposure after 100 mg/kg PO relative to 10 mg/kg", "setting": "Pharmacokinetics in mice", "result": 19, "unit": "times"}, {"measurement": "plasma exposure", "setting": "Pharmacokinetics in mice; PO 10 mg/kg", "result": 3.4, "unit": "µM·h"}, {"measurement": "plasma exposure", "setting": "Pharmacokinetics in mice; PO 100 mg/kg", "result": 64, "unit": "µM·h"}, {"measurement": "extraction by the liver", "setting": "Pharmacokinetics in mice; blood clearance vs hepatic blood flow 5.4 L/h.kg", "result": "~57", "unit": "%"}, {"measurement": "clearance", "setting": "Pharmacokinetics in mice; both sexes, BALB/c hairy, mouse, IV 2 mg/kg, plasma, ± standard error of the estimate, read-out: CL (converted)", "result": 2.21, "unit": "L/h/kg"}, {"measurement": "concentration at 0.03 h", "setting": "Pharmacokinetics in mice; both sexes, BALB/c hairy, mouse, plasma, IV 2 mg/kg, 0.03 h, read-out: Plasma Conc.", "result": 2.29, "unit": "µg/mL"}, {"measurement": "concentration at 0.07 h", "setting": "Pharmacokinetics in mice; both sexes, BALB/c hairy, mouse, plasma, IV 2 mg/kg, 0.07 h, read-out: Plasma Conc.", "result": 2.15, "unit": "µg/mL"}, {"measurement": "concentration at 0.1 h", "setting": "Pharmacokinetics in mice; both sexes, BALB/c hairy, mouse, plasma, IV 2 mg/kg, 0.10 h, read-out: Plasma Conc.", "result": 1.31, "unit": "µg/mL"}, {"measurement": "concentration at 0.17 h", "setting": "Pharmacokinetics in mice; both sexes, BALB/c hairy, mouse, plasma, IV 2 mg/kg, 0.17 h, read-out: Plasma Conc.", "result": 1.07, "unit": "µg/mL"}, {"measurement": "concentration at 0.2 h", "setting": "Pharmacokinetics in mice; both sexes, BALB/c hairy, mouse, plasma, IV 2 mg/kg, 0.20 h, read-out: Plasma Conc.", "result": 1.02, "unit": "µg/mL"}, {"measurement": "concentration at 0.3 h", "setting": "Pharmacokinetics in mice; both sexes, BALB/c hairy, mouse, plasma, IV 2 mg/kg, 0.30 h, read-out: Plasma Conc.", "result": 0.781, "unit": "µg/mL"}, {"measurement": "concentration at 0.53 h", "setting": "Pharmacokinetics in mice; both sexes, BALB/c hairy, mouse, plasma, IV 2 mg/kg, 0.53 h, read-out: Plasma Conc.", "result": 0.367, "unit": "µg/mL"}, {"measurement": "concentration at 0.68 h", "setting": "Pharmacokinetics in mice; both sexes, BALB/c hairy, mouse, plasma, IV 2 mg/kg, 0.68 h, read-out: Plasma Conc.", "result": 0.271, "unit": "µg/mL"}, {"measurement": "concentration at 1.4 h", "setting": "Pharmacokinetics in mice; both sexes, BALB/c hairy, mouse, plasma, IV 2 mg/kg, 1.4 h, read-out: Plasma Conc.", "result": 0.132, "unit": "µg/mL"}, {"measurement": "concentration at 2.1 h", "setting": "Pharmacokinetics in mice; both sexes, BALB/c hairy, mouse, plasma, IV 2 mg/kg, 2.1 h, read-out: Plasma Conc.", "result": 0.05, "unit": "µg/mL"}, {"measurement": "concentration at 3.4 h", "setting": "Pharmacokinetics in mice; both sexes, BALB/c hairy, mouse, plasma, IV 2 mg/kg, 3.4 h, read-out: Plasma Conc.", "result": 0.02, "unit": "µg/mL"}, {"measurement": "concentration at 4.1 h", "setting": "Pharmacokinetics in mice; both sexes, BALB/c hairy, mouse, plasma, IV 2 mg/kg, 4.1 h, read-out: Plasma Conc.", "result": 0.011, "unit": "µg/mL"}, {"measurement": "concentration at 5.4 h", "setting": "Pharmacokinetics in mice; both sexes, BALB/c hairy, mouse, plasma, IV 2 mg/kg, 5.4 h, read-out: Plasma Conc.", "result": 0.003, "unit": "µg/mL"}, {"measurement": "concentration at 6 h", "setting": "Pharmacokinetics in mice; both sexes, BALB/c hairy, mouse, plasma, IV 2 mg/kg, 6 h, read-out: Plasma Conc.", "result": 0.0032, "unit": "µg/mL"}, {"measurement": "concentration at 7 h", "setting": "Pharmacokinetics in mice; both sexes, BALB/c hairy, mouse, plasma, IV 2 mg/kg, 7 h, read-out: Plasma Conc.", "result": 0.0024, "unit": "µg/mL"}, {"measurement": "concentration at 7.7 h", "setting": "Pharmacokinetics in mice; both sexes, BALB/c hairy, mouse, plasma, IV 2 mg/kg, 7.7 h, read-out: Plasma Conc.", "result": 0.0028, "unit": "µg/mL"}, {"measurement": "concentration at 8 h", "setting": "Pharmacokinetics in mice; both sexes, BALB/c hairy, mouse, plasma, IV 2 mg/kg, 8 h, read-out: Plasma Conc.", "result": 0.0028, "unit": "µg/mL"}, {"measurement": "concentration at 8.8 h", "setting": "Pharmacokinetics in mice; both sexes, BALB/c hairy, mouse, plasma, IV 2 mg/kg, 8.8 h, read-out: Plasma Conc.", "result": 0.002, "unit": "µg/mL"}, {"measurement": "concentration at 9.5 h", "setting": "Pharmacokinetics in mice; both sexes, BALB/c hairy, mouse, plasma, IV 2 mg/kg, 9.5 h, read-out: Plasma Conc.", "result": 0.0017, "unit": "µg/mL"}, {"measurement": "AUC", "setting": "Pharmacokinetics in mice; both sexes, BALB/c hairy, mouse, plasma, IV 2 mg/kg, ± standard error of the estimate", "result": "0.906 ± 0.09", "unit": "µg·h/mL"}, {"measurement": "Vd", "setting": "Pharmacokinetics in mice; both sexes, BALB/c hairy, mouse, plasma, IV 2 mg/kg, ± standard error of the estimate, read-out: Vss", "result": "1.71 ± 0.246", "unit": "L/kg"}, {"measurement": "half-life", "setting": "Pharmacokinetics in mice; both sexes, BALB/c hairy, mouse, plasma, IV 2 mg/kg, ± standard error of the estimate, read-out: t½ (converted)", "result": "1.8 ± 0.3", "unit": "h"}, {"measurement": "concentration at 0.13 h", "setting": "Pharmacokinetics in mice; both sexes, BALB/c hairy, mouse, plasma, PO 10 mg/kg, 0.13 h, read-out: Plasma Conc.", "result": 0.14, "unit": "µg/mL"}, {"measurement": "concentration at 0.28 h", "setting": "Pharmacokinetics in mice; both sexes, BALB/c hairy, mouse, plasma, PO 10 mg/kg, 0.28 h, read-out: Plasma Conc.", "result": 0.3, "unit": "µg/mL"}, {"measurement": "concentration at 0.4 h", "setting": "Pharmacokinetics in mice; both sexes, BALB/c hairy, mouse, plasma, PO 10 mg/kg, 0.40 h, read-out: Plasma Conc.", "result": 0.139, "unit": "µg/mL"}, {"measurement": "concentration at 0.65 h", "setting": "Pharmacokinetics in mice; both sexes, BALB/c hairy, mouse, plasma, PO 10 mg/kg, 0.65 h, read-out: Plasma Conc.", "result": 0.389, "unit": "µg/mL"}, {"measurement": "concentration at 1.2 h", "setting": "Pharmacokinetics in mice; both sexes, BALB/c hairy, mouse, plasma, PO 10 mg/kg, 1.2 h, read-out: Plasma Conc.", "result": 0.74, "unit": "µg/mL"}, {"measurement": "concentration at 1.9 h", "setting": "Pharmacokinetics in mice; both sexes, BALB/c hairy, mouse, plasma, PO 10 mg/kg, 1.9 h, read-out: Plasma Conc.", "result": 0.356, "unit": "µg/mL"}, {"measurement": "concentration at 2.6 h", "setting": "Pharmacokinetics in mice; both sexes, BALB/c hairy, mouse, plasma, PO 10 mg/kg, 2.6 h, read-out: Plasma Conc.", "result": 0.45, "unit": "µg/mL"}, {"measurement": "concentration at 3.3 h", "setting": "Pharmacokinetics in mice; both sexes, BALB/c hairy, mouse, plasma, PO 10 mg/kg, 3.3 h, read-out: Plasma Conc.", "result": 0.095, "unit": "µg/mL"}]}
